28 compounds from patent US7989467B2, “Use of indole-derived compounds for the preparation of a medicament that can be used to treat diseases related to the splicing process” (Centre National de la Recherche Scientifique (CNRS), priority 2003, dated 2011) can be followed below.

One test deals with T1, SRp55 (Homo sapiens, UniProt Q13247).
T1 sequence (Q13247 1-344): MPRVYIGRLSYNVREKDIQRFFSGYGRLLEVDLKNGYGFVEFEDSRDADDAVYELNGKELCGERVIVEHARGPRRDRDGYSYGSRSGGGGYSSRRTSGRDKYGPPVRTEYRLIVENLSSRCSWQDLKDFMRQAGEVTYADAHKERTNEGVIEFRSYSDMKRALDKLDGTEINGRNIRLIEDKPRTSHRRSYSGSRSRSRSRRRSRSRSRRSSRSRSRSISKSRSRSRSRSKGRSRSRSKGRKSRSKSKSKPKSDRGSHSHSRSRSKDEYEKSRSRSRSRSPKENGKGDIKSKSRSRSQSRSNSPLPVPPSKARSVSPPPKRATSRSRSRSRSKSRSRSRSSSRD
The test can be described thus: In vitro splicing results, Table 3: SRp55. The following applies: summary of Table 3. Type of test: biochemical.
Take `Cc1c2ccnc(NCCC(C)C)c2c(C)c2c1[nH]c1ccc(O)cc12` [C19, 5,11-dimethyl-1-(3-methyl-butylamino)-6H-pyrido[4,3-b]carbazol-9-ol]: the “inhibit the activity of the SRp55 protein specifically” value (“inhibit the activity” below) is on record as “inhibit the activity of the SRp55 protein specifically”.
On the same count and under the same terms, next, `COc1ccc2[nH]c3c(C)c4ccnc(NCCN5CCCC5)c4cc3c2c1` [C42, (9-methoxy-5-methyl-6H-pyrido[4,3-b]carbazol-1-yl)-(2-pyrrolidin-1-yl-ethyl)-amine]: “inhibit the activity of the SRp55 protein specifically”.
With `Cc1cnc(NCCCN(C)C)c2c1[nH]c1c3cccc(O)c3ccc12` [C76, 7-(3-dimethylamino-propylamino)-10-methyl-11H-benzo[g]pyrido[4,3-b]indol-4-ol], the “inhibit the activity” value is “inhibit the activity of the SRp55 protein specifically”.
`COc1ccc2ccc3[nH]c4c(C)cnc(NCCCN(C)C)c4c3c2c1` [C77, N′-(2-methoxy-8-methyl-7H-benzo[e]pyrido[4,3-b]indol-11-yl)-N,N-dimethyl-propane-1,3-diamine]: the “inhibit the activity” value is recorded as “inhibit the activity of the SRp55 protein specifically”.
Same read-out and setting: next, `CCN(CC)CCCNc1ncc(C)c2c1c1ccc3ccccc3c1n2C` [C78, N′-(10,11-dimethyl-11H-benzo[g]pyrido[4,3-b]indol-7-yl)-N,N-diethyl-propane-1,3-diamine]: “inhibit the activity of the SRp55 protein specifically”; `Cc1cnc(NCCCN(C)C)c2c3c4ccccc4ccc3n(C)c12` [C79, N′-(7,8-dimethyl-7H-benzo[e]pyrido[4,3-b]indol-11-yl)-N,N-dimethyl-propane-1,3-diamine]: “inhibit the activity of the SRp55 protein specifically”; `Cc1cnc(NCCCN(C)C)c2c1[nH]c1c3ccccc3ccc12` [C80, N,N-dimethyl-N′-(10-methyl-11H-benzo[g]pyrido[4,3-b]indoi-7-yl)-propane-1,3-diamine]: “inhibit the activity of the SRp55 protein specifically”.
As for `CCN(CC)CCCNc1ncc(C)c2[nH]c3c4ccccc4ccc3c12` [C82, N,N-diethyl-N′-(10-methyl-11H-benzo[g]pyrido[4,3-b]indol-7-yl)-propane-1,3-diamine], the “inhibit the activity” value is given as “inhibit the activity of the SRp55 protein specifically”.
With `COc1cccc2c1ccc1c3c(NCCCN(C)C)ncc(C)c3n(C)c21` [C85, N′-(4-methoxy-10,11-dimethyl-11H-benzo[g]pyrido[4,3-b]indol-7-yl)-N,N-dimethyl-propane-1,3-diamine], the “inhibit the activity” value was “inhibit the activity of the SRp55 protein specifically”.
Still for that read-out and setting: the result for `Cc1cnc(NCCCN(C)C)c2c1[nH]c1ccc3ccccc3c12` [C87, N,N-dimethyl-N′-(8-methyl-7H-benzo[e]pyrido[4,3-b]indol-11-yl)-propane-1,3-diamine] reads “inhibit the activity of the SRp55 protein specifically”; that for `Cc1cnc(NCC(C)CN(C)C)c2c1[nH]c1ccc3cc(O)ccc3c12` (stereo not shown) [C88, 11-(3-dimethylamino-2-methyl-propylamino)-8-methyl-7H-benzo[e]pyrido[4,3-b]indol-3-ol], “inhibit the activity of the SRp55 protein specifically”; that for `COc1cccc2c1ccc1[nH]c3c(C)cnc(NCCCN(C)C)c3c12` [C93, N′-(4-methoxy-8-methyl-7H-benzo[e]pyrido[4,3-b]indol-11-yl)-N,N-dimethyl-propane-1,3-diamine], “inhibit the activity of the SRp55 protein specifically”.
On to `COc1ccc2c(ccc3[nH]c4c(C)cnc(NCCCCCCN)c4c32)c1` [C95, N-(3-methoxy-8-methyl-7H-benzo[e]pyrido[4,3-b]indol-11-yl)-hexane-1,6-diamine], for which the “inhibit the activity” value is reported as “inhibit the activity of the SRp55 protein specifically”.

For another test, the system named is HIV. Description: Inhibition of HIV multiplication in PMA-stimulated U1 cells (RT-PCR of viral transcripts). Type of test: cell-based. To be noted: 2.5 μM; 24 h; U1 cells treated with 50 nM PMA; FIG. 6. From the text:
To this end, human […] cell line U1, which is chronically infected by HIV (Folks et al., 1988. Characterization of a promonocyte clone chronically infected with HIV and inducible by 13-phorbol-12-myristate acetate. J. Immunol., 140: 1117-1122) and which produces large quantities of virus after stimulation by PMA (phorbol myristate acetate), was used. As a result, this cell line constitutes an excellent model to mimic the transition between the latency phase and the viral production phase observed in patients infected by HIV.
The results of this experiment are presented in FIG. 6 in which U1 cells (5×10^5) were treated with 50 nM of PMA in the absence (FIG. 6, lane 1) or in the presence of 2.5 μM of compounds C47, C97, C58, C57, C92, C91, C90, C83, C73, C34, C51, C45, C13, C10, C44, C6, C7, C41, C50, C32, C2, C1, C29, C35 and C99 (FIG. 6, lanes 3-27, respectively). After 24 h of treatment, the virus's transcripts were amplified by RT-PCR using specific VIH, BSS and SJ4.7A primers (Jacquenet et al., 2001, A second exon splicing silencer within human immunodeficiency virus type 1 tat exon 2 represses splicing of Tat mRNA and binds protein hnRNP. H. J. Biol. Chem. 276: 40464-75) and a radioactive tracer (α-32P) CTP.
For `COc1ccc2c(c1)c1c(C)c3c(NCCCN(C)C)nccc3c(C)c1n2C` [C1, N′-(9-methoxy-5,6,11-trimetyl-6H-pyrido[4,3-b]carbazol-1-yl)-N,N-dimethyl-propane-1,3-diamine], the “inhibition of HIV multiplication (amplification of viral transcripts)” value (shortened to “inhibition of HIV multiplication”) is reported as “excellent inhibitors of HIV multiplication”.
In the case of `C=CCNc1nccc2c(C)c3[nH]c4ccc(OC)cc4c3c(C)c12` [C10, allyl-(9-methoxy-5,11-dimethyl-6H-pyrido[4,3-b]carbazol-1-yl)-amine], the “inhibition of HIV multiplication” value is recorded as “excellent inhibitors of HIV multiplication”.
`COc1ccc2[nH]c3c(C)c4ccnc(NCCCCCCNc5c6cc7c([nH]c8ccc(OC)cc87)c(C)c6cc[n+]5C)c4cc3c2c1.[I-]` [C13, 9-methoxy-1-[6-(9-methoxy-5-methyl-6H-pyrido[4,3-b]carbazol-1-ylamino)-hexylamino]-2,5-dimethyl-6H-pyrido[4,3-b]carbazol-2-ium iodide]: the “inhibition of HIV multiplication” value was “excellent inhibitors of HIV multiplication”.
With `CCN(CC)CCNc1nccc2c(C)c3c(c(C)c12)c1cc(OC)ccc1n3C` [C29, N,N-diethyl-N′-(9-methoxy-5,6,11-trimethyl-6H-pyrido[4,3-b]carbazol-1-yl)-ethane-1,2-diamine], the “inhibition of HIV multiplication” value is reported as “excellent inhibitors of HIV multiplication”.
For `Cc1c2ccnc(NCCCN(C)C)c2cc2c3cnccc3n(C)c12` [C32, N′-(5,6-dimethyl-5H-pyrido[3′4′:4,5]pyrrolo[2,3-g]isoquinolin-10-yl)-N,N-dimethyl-propane-1,3-diamine], the “inhibition of HIV multiplication” value is listed as “excellent inhibitors of HIV multiplication”.
Regarding `CCN(CC)CCCNc1nccc2c(C)c3[nH]c4ccc(O)cc4c3cc12` [C35, 1-(3-diethylamino-propylamino)-5-methyl-6H-pyrido[4,3-b]carbazol-9-ol], the “inhibition of HIV multiplication” value was “excellent inhibitors of HIV multiplication”.
Regarding `CCN(CC)CCCNc1nccc2c(C)c3[nH]c4ccc(OC)cc4c3c(C)c12` [C41, N,N-diethyl-N′-(9-methoxy-5,11-dimethyl-6H-pyrido[4,3-b]carbazol-1-yl)-propane-1,3-diamine], the “inhibition of HIV multiplication” value is recorded as “excellent inhibitors of HIV multiplication”.
Still for that read-out and setting: the result for `CCN(CC)CC(O)CNc1nccc2c(C)c3[nH]c4ccc(OC)cc4c3cc12` (stereo not shown) [C44, 1-diethylamino-3-(9-methoxy-5-methyl-6H-pyrido[4,3-b]carbazol-1-ylamino)-propan-2-ol] reads “excellent inhibitors of HIV multiplication”; that for `COc1ccc2c(ccc3c2[nH]c2c(C)cnc(NCCCCN)c23)c1` [C47, N-(3-methoxy-10-methyl-11H-benzo[g]pyrido[4,3-b]indol-7-yl)-butane-1,4-diamine], “excellent inhibitors of HIV multiplication”.
As for `CCN(CC)CCCNc1nccc2c(C)c3[nH]c4ccncc4c3cc12` [C51, N-N,diethyl-N′-(6-methyl-5H-pyrido[3′,4′:4,5]pyrrolo[2,3-g]isoquinolin-10-yl)-propane-1,3-diamine], the “inhibition of HIV multiplication” value is “excellent inhibitors of HIV multiplication”.
On the same count and under the same terms, the result for `COc1cccc2c1ccc1c2[nH]c2c(C)cnc(N)c21` [C83, 4-methoxy-10-methyl-11H-benzo[g]pyrido[4,3-b]indol-7-ylamine] reads “excellent inhibitors of HIV multiplication”; that for `COc1ccc2c(ccc3c2[nH]c2c(C)cnc(NCCCN)c23)c1` [C91, N-(3-methoxy-10-methyl-11H-benzo[g]pyrido[4,3-b]indol-7-yl)-propane-1,3-diamine], “excellent inhibitors of HIV multiplication”.
As to `COc1ccc2c(ccc3[nH]c4c(C)cnc(NCCCN(C)C)c4c32)c1` [C92, N′-(3-methoxy-8-methyl-7H-benzo[e]pyrido[4,3-b]indol-11-yl)-N,N-dimethyl-propane-1,3-diamine], the “inhibition of HIV multiplication” value is given as “excellent inhibitors of HIV multiplication”.
As for `COc1ccc2c(ccc3c2[nH]c2c(C)cnc(NCCCN(C)CCCN)c23)c1` [C97, N-[3-(3-methoxy-10-methyl-11H-benzo[g]pyrido[4,3-b]indol-7-ylamino)-propyl]-N-methyl-propane-1,3-diamine], the “inhibition of HIV multiplication” value was “excellent inhibitors of HIV multiplication”.
Take `CCNCCCNc1nccc2c(C)c3c(cc12)c1cnccc1n3C` [C99, N-(5,6-dimethyl-5H-pyrido[3′4′:4,5]pyrrolo[2,3-g]isoquinolin-10-yl)-N′-ethyl-propane-1,3-diamine]: the “inhibition of HIV multiplication” value is on record as “excellent inhibitors of HIV multiplication”.
